{
  "source": "patent US20260256792A1",
  "about": "“TREATMENT OF CHRONIC SPONTANEOUS URTICARIA BY ADMINISTERING (R)-2-[3-[4-AMINO-3-(2-FLUORO-4-PHENOXY-PHENYL)PYRAZOLO[3,4-D]PYRIMIDIN-1-YL]PIPERIDINE-1-CARBONYL]-4-METHYL-4-[4-(OXETAN-3-YL)PIPERAZIN-1-YL]PENT-2-ENENITRILE” (priority 2023, published 2026)",
  "test_system": "moderate-to-severe chronic spontaneous urticaria (CSU)",
  "test": "Phase 2 CSU study: urticaria activity score over 7 days (UAS7)",
  "type": "in vivo, human",
  "conditions": "ITT, 400 mg BID",
  "from_the_text": "The study comprises a 12 week, randomized, double-blind, placebo-controlled, multi-center, dose-ranging efficacy and safety phase, followed by a 40 week open label extension (OLE) phase (see FIG. 1). The study consists of three phases and an optional OLE phase. […] Clinically, CSU is characterized by the spontaneous and recurrent appearance of pruritic hives. The proposed primary endpoints were the UAS7 at Week 12 in EU and EU reference countries and the ISS7 in the US. Regardless of where a participant was from, all assessments were the same. The UAS7 score is a composite score containing both the HSS7 and the ISS7. This allowed a global assessment of the two key components of urticaria: hives and itch. […] The UAS is a validated PRO measure. […] The daily UAS scores range from 0 to 6 point/day. […] Patients were to complete the UAS using the e-diary. […] The following secondary endpoints were to be analyzed using the same approach as for the primary endpoint: • Change from baseline in UAS7 at Week 4 • Change from baseline in UAS7 at Week 12 (for US and US reference countries) • Change from baseline in ISS7 at Week 12 (except US and US reference countries) • Change from baseline in HSS7 at Week 12 The following responder secondary endpoints were to be analyzed using the Cochran-Mantel-Haenszel test adjusted by region: • Proportion of participants with UAS7<6 at Week 12 • Proportion of participants with UAS7=0 at Week 12 Participants who received selected prohibited medications and/or rescue medications were to be considered as non-responders for time points after the medication usage. For other participants, all available data including those collected during the off-treatment period were to be used to determine the responder/non-responder status. Missing data were to be considered as non-responders.",
  "data": [
    {"smiles": "CC(C)(C=C(C#N)C(=O)N1CCC[C@@H](n2nc(-c3ccc(Oc4ccccc4)cc3F)c3c(N)ncnc32)C1)N1CCN(C2COC2)CC1", "note": "[rilzabrutinib, (R)-2-[3-[4-amino-3-(2-fluoro-4-phenoxy-phenyl)pyrazolo[3,4-d]pyrimidin-1-yl]piperidine-1-carbonyl]-4-methyl-4-[4-(oxetan-3-yl)piperazin-1-yl]pent-2-enenitrile]", "values": [
      {"measurement": "OR for rilzabrutinib vs. placebo, UAS7 ≤6", "setting": "Week 4", "value": 2.948},
      {"measurement": "RRD (%) for rilzabrutinib vs. placebo, UAS7 = 0", "setting": "Week 4", "value": 1.3, "unit": "%"},
      {"measurement": "RRD (%) for rilzabrutinib vs. placebo, UAS7 ≤6", "setting": "Week 4", "value": 16.7, "unit": "%"},
      {"measurement": "Responder n (%), UAS7 = 0", "setting": "Week 4", "value": "3 (7.3) n (%)"},
      {"measurement": "Responder n (%), UAS7 ≤6", "setting": "Week 4", "value": "13 (31.7) n (%)"},
      {"measurement": "Imputed non-responder n (%), UAS7 = 0", "setting": "Week 5", "value": "5 (12.2) n (%)"},
      {"measurement": "Imputed non-responder n (%), UAS7 ≤6", "setting": "Week 5", "value": "5 (12.2) n (%)"},
      {"measurement": "Non-responder n (%), UAS7 = 0", "setting": "Week 5", "value": "35 (85.4) n (%)"},
      {"measurement": "Non-responder n (%), UAS7 ≤6", "setting": "Week 5", "value": "28 (68.3) n (%)"},
      {"measurement": "OR for rilzabrutinib vs. placebo, UAS7 = 0", "setting": "Week 5", "value": 6.024},
      {"measurement": "OR for rilzabrutinib vs. placebo, UAS7 ≤6", "setting": "Week 5", "value": 8.203},
      {"measurement": "RRD (%) for rilzabrutinib vs. placebo, UAS7 ≤6", "setting": "Week 5", "value": 24.3, "unit": "%"},
      {"measurement": "Responder n (%), UAS7 = 0", "setting": "Week 5", "value": "6 (14.6) n (%)"},
      {"measurement": "Responder n (%), UAS7 ≤6", "setting": "Week 5", "value": "13 (31.7) n (%)"},
      {"measurement": "Imputed non-responder n (%), UAS7 = 0", "setting": "Week 6", "value": "4 (9.8) n (%)"},
      {"measurement": "Imputed non-responder n (%), UAS7 ≤6", "setting": "Week 6", "value": "4 (9.8) n (%)"},
      {"measurement": "Non-responder n (%), UAS7 = 0", "setting": "Week 6", "value": "36 (87.8) n (%)"},
      {"measurement": "Non-responder n (%), UAS7 ≤6", "setting": "Week 6", "value": "29 (70.7) n (%)"},
      {"measurement": "OR for rilzabrutinib vs. placebo, UAS7 = 0", "setting": "Week 6", "value": 4.821},
      {"measurement": "OR for rilzabrutinib vs. placebo, UAS7 ≤6", "setting": "Week 6", "value": 2.329},
      {"measurement": "RRD (%) for rilzabrutinib vs. placebo, UAS7 = 0", "setting": "Week 6", "value": 8.4, "unit": "%"},
      {"measurement": "RRD (%) for rilzabrutinib vs. placebo, UAS7 ≤6", "setting": "Week 6", "value": 13.6, "unit": "%"},
      {"measurement": "Responder n (%), UAS7 = 0", "setting": "Week 6", "value": "5 (12.2) n (%)"},
      {"measurement": "Responder n (%), UAS7 ≤6", "setting": "Week 6", "value": "12 (29.3) n (%)"},
      {"measurement": "Imputed non-responder n (%), UAS7 = 0", "setting": "Week 7", "value": "4 (9.8) n (%)"},
      {"measurement": "Imputed non-responder n (%), UAS7 ≤6", "setting": "Week 7", "value": "4 (9.8) n (%)"},
      {"measurement": "Non-responder n (%), UAS7 = 0", "setting": "Week 7", "value": "35 (85.4) n (%)"},
      {"measurement": "Non-responder n (%), UAS7 ≤6", "setting": "Week 7", "value": "29 (70.7) n (%)"},
      {"measurement": "OR for rilzabrutinib vs. placebo, UAS7 = 0", "setting": "Week 7", "value": 6.024},
      {"measurement": "OR for rilzabrutinib vs. placebo, UAS7 ≤6", "setting": "Week 7", "value": 3.425},
      {"measurement": "RRD (%) for rilzabrutinib vs. placebo, UAS7 ≤6", "setting": "Week 7", "value": 17.8, "unit": "%"},
      {"measurement": "Responder n (%), UAS7 = 0", "setting": "Week 7", "value": "6 (14.6) n (%)"},
      {"measurement": "Responder n (%), UAS7 ≤6", "setting": "Week 7", "value": "12 (29.3) n (%)"},
      {"measurement": "Imputed non-responder n (%), UAS7 = 0", "setting": "Week 8", "value": "5 (12.2) n (%)"},
      {"measurement": "Imputed non-responder n (%), UAS7 ≤6", "setting": "Week 8", "value": "5 (12.2) n (%)"},
      {"measurement": "Non-responder n (%), UAS7 = 0", "setting": "Week 8", "value": "33 (80.5) n (%)"},
      {"measurement": "Non-responder n (%), UAS7 ≤6", "setting": "Week 8", "value": "25 (61.0) n (%)"},
      {"measurement": "OR for rilzabrutinib vs. placebo, UAS7 = 0", "setting": "Week 8", "value": 4.083},
      {"measurement": "OR for rilzabrutinib vs. placebo, UAS7 ≤6", "setting": "Week 8", "value": 3.297},
      {"measurement": "RRD (%) for rilzabrutinib vs. placebo, UAS7 = 0", "setting": "Week 8", "value": 13.4, "unit": "%"},
      {"measurement": "RRD (%) for rilzabrutinib vs. placebo, UAS7 ≤6", "setting": "Week 8", "value": 21.8, "unit": "%"},
      {"measurement": "Responder n (%), UAS7 = 0", "setting": "Week 8", "value": "8 (19.5) n (%)"},
      {"measurement": "Responder n (%), UAS7 ≤6", "setting": "Week 8", "value": "16 (39.0) n (%)"},
      {"measurement": "Imputed non-responder n (%), UAS7 = 0", "setting": "Week 9", "value": "9 (22.0) n (%)"},
      {"measurement": "Imputed non-responder n (%), UAS7 ≤6", "setting": "Week 9", "value": "9 (22.0) n (%)"},
      {"measurement": "Non-responder n (%), UAS7 = 0", "setting": "Week 9", "value": "33 (80.5) n (%)"},
      {"measurement": "Non-responder n (%), UAS7 ≤6", "setting": "Week 9", "value": "28 (68.3) n (%)"},
      {"measurement": "OR for rilzabrutinib vs. placebo, UAS7 = 0", "setting": "Week 9", "value": 2.914},
      {"measurement": "OR for rilzabrutinib vs. placebo, UAS7 ≤6", "setting": "Week 9", "value": 3.540},
      {"measurement": "RRD (%) for rilzabrutinib vs. placebo, UAS7 = 0", "setting": "Week 9", "value": 11.3, "unit": "%"},
      {"measurement": "RRD (%) for rilzabrutinib vs. placebo, UAS7 ≤6", "setting": "Week 9", "value": 19.4, "unit": "%"},
      {"measurement": "Responder n (%), UAS7 = 0", "setting": "Week 9", "value": "8 (19.5) n (%)"},
      {"measurement": "Responder n (%), UAS7 ≤6", "setting": "Week 9", "value": "13 (31.7) n (%)"},
      {"measurement": "Imputed non-responder n (%), UAS7 = 0", "setting": "Week 10", "value": "10 (24.4) n (%)"},
      {"measurement": "Imputed non-responder n (%), UAS7 ≤6", "setting": "Week 10", "value": "10 (24.4) n (%)"},
      {"measurement": "Non-responder n (%), UAS7 = 0", "setting": "Week 10", "value": "32 (78.0) n (%)"},
      {"measurement": "Non-responder n (%), UAS7 ≤6", "setting": "Week 10", "value": "29 (70.7) n (%)"},
      {"measurement": "OR for rilzabrutinib vs. placebo, UAS7 = 0", "setting": "Week 10", "value": 2.322},
      {"measurement": "OR for rilzabrutinib vs. placebo, UAS7 ≤6", "setting": "Week 10", "value": 1.699},
      {"measurement": "RRD (%) for rilzabrutinib vs. placebo, UAS7 = 0", "setting": "Week 10", "value": 10.9, "unit": "%"},
      {"measurement": "RRD (%) for rilzabrutinib vs. placebo, UAS7 ≤6", "setting": "Week 10", "value": 8.6, "unit": "%"},
      {"measurement": "Responder n (%), UAS7 = 0", "setting": "Week 10", "value": "9 (22.0) n (%)"},
      {"measurement": "Responder n (%), UAS7 ≤6", "setting": "Week 10", "value": "12 (29.3) n (%)"},
      {"measurement": "Imputed non-responder n (%), UAS7 = 0", "setting": "Week 11", "value": "9 (22.0) n (%)"},
      {"measurement": "Imputed non-responder n (%), UAS7 ≤6", "setting": "Week 11", "value": "9 (22.0) n (%)"},
      {"measurement": "Non-responder n (%), UAS7 = 0", "setting": "Week 11", "value": "35 (85.4) n (%)"}
    ]}
  ]
}
